Data from patent US12458025B2 (priority 2020, dated 2025).
Like-named read-outs stand apart in the source and are kept apart here.

Tests used:
[1] = test system: Candidatus Liberibacter solanacearum (CLso); assay type: cell-based; conditions: re-test, five biological replicates, 72 h; tetracycline 250 ppm
[2] = test system: Candidatus Liberibacter asiaticus (CLas); assay type: cell-based; conditions: 25 μM, 72 h; tetracycline 500 ppm
[3] = test system: Candidatus Liberibacter solanacearum (CLso); assay type: in vivo, potato (Solanum tuberosum L. var. Atlantic); conditions: foliar spray 10 and 25 μM twice a week, 28 dpi; for CLso titers by qPCR: vs untreated controls; for disease symptoms (chlorosis, necrosis, leaf curling and wilting): vs untreated plants
[4] = test system: Clavibacter michiganensis (Gram positive); test: Bacterial culture growth inhibition, cell density (OD: 600); assay type: cell-based; conditions: for cell density (OD: 600): untreated 1.61
[5] = test system: Pseudomonas syringae (Gram negative); test: as above; assay type: cell-based; conditions: 24 h; for growth inhibition significance vs untreated (asterisks): N=4; for cell density (OD: 600): untreated 1.82
Experimental: These compounds were also tested against other phytobacteria. The respective bacterial cultures were grown in the presence of multiple concentrations of a compound (μM) for 24 h, followed by cell density measurements (OD: 600). […]

[6] = test system: Agrobacterium tumefaciens (Gram negative); test: as above; assay type: cell-based; conditions: for cell density (OD: 600) / growth inhibition significance vs untreated (asterisks): 24 h; for cell density (OD: 600): untreated 1.12; for growth inhibition significance vs untreated (asterisks): N=4
[7] = cited from earlier work
[8] = test system: bacteria, fungi, and the superbug MRSA; conditions: agar patch studies; cited from earlier work

SMILES	inhibition of CLso (FIG. 1b) [1]	inhibition of CLas (FIG. 1c) [2]	CLso titers by qPCR [3]	disease symptoms (chlorosis, necrosis, leaf curling and wilting) [3]	cell density (OD: 600) ([4]; 5 μM, 24 h)	cell density (OD: 600) ([4]; 10 μM, 24 h)	cell density (OD: 600) ([4]; 20 μM, 24 h)	cell density (OD: 600) ([4]; 50 μM, 24 h)	growth inhibition significance vs untreated (asterisks) ([5]; 5 μM)	cell density (OD: 600) ([5]; 5 μM)	growth inhibition significance vs untreated (asterisks) ([5]; 10 μM)	cell density (OD: 600) ([5]; 10 μM)	cell density (OD: 600) ([5]; 20 μM)	growth inhibition significance vs untreated (asterisks) ([5]; 50 μM)	cell density (OD: 600) ([5]; 50 μM)	cell density (OD: 600) ([6]; 5 μM)	cell density (OD: 600) ([6]; 10 μM)	cell density (OD: 600) ([6]; 20 μM)	cell density (OD: 600) ([6]; 50 μM)	growth inhibition significance vs untreated (asterisks) ([5]; 20 μM)	further results
COc1ccc(C2COc3c(ccc(O)c3OC)C2)c(OC)c1O (single isomer, unassigned; (-)) [Duartin (−), (−)-duartin]	inhibited	inhibited	lowered CLso titers	clearly lower level of disease symptoms	1.66	1.61	1.65	1.62	** (highly effective, **P≤0.001)	1.77	** (highly effective, **P≤0.001)	1.78	1.79	** (highly effective, **P≤0.001)	1.76	1.10	1.11	1.10	1.09		
Cl.NCCCCCC(=O)O [Aminocaproic acid hydrochloride, 6-aminohexanoic acid]					1.64	1.64	1.66	1.59		1.80		1.81	1.80	* (effective, *P≤0.05)	1.78	1.17	1.16	1.10	1.11		solubility ([7]; in chloroform): practically insoluble; solubility ([7]; in methanol): sparingly soluble; solubility ([7]; in water, acid, and alkaline solutions): soluble
CN(C)CCOC(c1ccc(Cl)cc1)c1ccccn1.O=C(O)/C=C\C(=O)O (stereo not drawn) [Carbinoxamine maleate]					1.68	1.63	1.58	1.59		1.81		1.81	1.81	* (effective, *P≤0.05)	1.77	1.10	1.08	1.14	1.20		
Cc1cc(O)cc(C)c1Cl [Chloroxylenol, 4-chloro-3,5-dimethylphenol]	inhibited	inhibited	lowered CLso titers	clearly lower level of disease symptoms	1.59	1.56	1.52	1.38		1.82		1.81	1.76	** (highly effective, **P≤0.001)	1.30	1.12	1.06	0.99	0.92	** (highly effective, **P≤0.001)	effective against Clavibacter michiganensis [4]: effective; growth inhibition significance vs untreated (asterisks) ([4]; 50 μM, 24 h, N=4): ** (highly effective, **P≤0.001); effective against Agrobacterium tumefaciens [6]: effective; growth inhibition significance vs untreated (asterisks) ([6]; 50 μM): * (effective, *P≤0.05); time to kill a wide variety of microbes [8]: ≤ 15 s
CCCNC(=O)NS(=O)(=O)c1ccc(Cl)cc1 [Chlorpropamide]					1.67	1.65	1.63	1.56	** (highly effective, **P≤0.001)	1.77	* (effective, *P≤0.05)	1.78	1.76	* (effective, *P≤0.05)	1.77	1.14	1.14	1.17	1.16	** (highly effective, **P≤0.001)	effective against Clavibacter michiganensis [4]: effective; effective against Agrobacterium tumefaciens [6]: effective
CCn1nc(C(=O)O)c(=O)c2cc3c(cc21)OCO3 [Cinoxacin, 1-ethyl-1,4-dihydro-4-oxo-[1,3] dioxolo [4,5-g] cinnoline-3-carboxylic acid]					1.63	1.64	1.59	1.57	* (effective, *P≤0.05)	1.77	* (effective, *P≤0.05)	1.76	1.72	** (highly effective, **P≤0.001)	1.76	1.17	1.11	1.13	0.94	** (highly effective, **P≤0.001)	effective against Agrobacterium tumefaciens [6]: effective; growth inhibition significance vs untreated (asterisks) ([6]; 50 μM): * (effective, *P≤0.05)
CN(C)CCOC(=O)C(c1ccccc1)C1(O)CCCC1.Cl (stereo not drawn) [Cyclopentolate hydrochloride]	inhibited	inhibited	lowered CLso titers	clearly lower level of disease symptoms	1.64	1.60	1.59	1.62	* (effective, *P≤0.05)	1.78		1.79	1.77	** (highly effective, **P≤0.001)	1.73	1.08	1.11	1.11	1.12	* (effective, *P≤0.05)	
